Values quoted from earlier work as cited in patent publication US20060089343A1, “Superoxide dismutase mimics for the treatment of ocular disorders and diseases” (ALCON, INC., priority 2002, published 2006).

Experiments:
[1] = albino rats
[2] = diabetogenic T-cell clone
IL-6 and MIP-2 = details: administration after induction of cerebral ischemia
[3] = given either before or after induction of cerebral ischemia
[4] = diabetic rats

For `CC1(C)CC(O)CC(C)(C)N1[O]` [4-hydroxy-2,2,6,6-tetramethylpiperidine-1-oxyl], the light-induced retinal damage [1] is listed as “inhibited light-induced retinal damage”.

For `CCN1C=CC=C/C1=C1/C2=NC(=C(c3cccc[n+]3CC)C3=NC(=C(c4cccc[n+]4CC)c4ccc([n-]4)C(c4cccc[n+]4CC)=C4C=CC1=N4)C=C3)C=C2.[Cl-].[Cl-].[Cl-].[Cl-].[Cl-].[Mn+3]` [AEOL10113], the onset of diabetes [2] is given as “delay the onset of diabetes”.

In the case of `CCn1cc[n+](CC)c1C1=C2C=CC3=[N+]2[Mn]24[n]5c1ccc5C(c1n(CC)cc[n+]1CC)=C1C=CC(=[N+]12)C(c1n(CC)cc[n+]1CC)=c1ccc([n]14)=C3c1n(CC)cc[n+]1CC` [Compound 1], the “expression of pro-inflammatory proteins, such as IL-6 and MIP-2” value (IL-6 and MIP-2) is listed as “attenuation of the increased expression”.

For `CC[n+]1ccccc1C1=C2C=CC3=[N+]2[Mn]24[n]5c1ccc5C(c1cccc[n+]1CC)=C1C=CC(=[N+]12)C(c1cccc[n+]1CC)=c1ccc([n]14)=C3c1cccc[n+]1CC` [Compound 2], the infarct volume [3] is listed as “reduces infarct volume”.

For `[Cl-].[Cl-].[Mn+2].c1cc2nc(c1)CN[C@@H]1CCCC[C@H]1NCCN[C@@H]1CCCC[C@H]1NC2` [Compound M40403], the “vascular and neural dysfunction” value [4] is listed as “prevented vascular and neural dysfunction”.
